Assay results: ChEMBL document CHEMBL4411344, “Synthesis and biological evaluation of new long-chain squaramides as anti-chagasic agents in the BALB/c mouse model” (Bioorg Med Chem, 2019)

system: Trypanosoma cruzi; assay: Trypanocidal activity against Trypanosoma cruzi IRHOD/CO/2008/SN3 DTU 1 amastigotes infected in African green monkey Vero cells after 72 hrs by Giemsa-staining based microscopic assay; format: functional, organism-based; details: IRHOD/CO/2008/SN3 DTU 1, Vero

Compound	IC50
CCCCCCCCCCCCCCCCOP(=O)([O-])OCC[N+](C)(C)C [MILTEFOSINE]	39.7 µM
CCCCNc1c(N(C)CCCN(C)C)c(=O)c1=O	13.1 µM
CN(C)CCCN(C)c1c(N)c(=O)c1=O	62.6 µM

system: not listed separately; assay: Selectivity index, ratio of IC50 for African green monkey Vero cells to IC50 for Trypanosoma cruzi MHOM/Pe/2011/Arequipa DTU 5 trypomastigotes derived from infected Balb/c mouse; format: toxicity; details: read-out: Ratio IC50

Compound	selectivity ratio
CCCCCCCCCCCCCCCCOP(=O)([O-])OCC[N+](C)(C)C [MILTEFOSINE]	1.2
CCCCNc1c(N(C)CCCN(C)C)c(=O)c1=O	42.2
CN(C)CCCN(C)c1c(N)c(=O)c1=O	32.2

system: Trypanosoma cruzi; assay: Trypanocidal activity against Trypanosoma cruzi MHOM/Pe/2011/Arequipa DTU 5 epimastigotes after 72 hrs by resazurin dye based assay; format: functional, organism-based; details: MHOM/Pe/2011/Arequipa DTU 5, 72 h

Compound	IC50
CCCCCCCCCCCCCCCCOP(=O)([O-])OCC[N+](C)(C)C [MILTEFOSINE]	20.8 µM
CCCCNc1c(N(C)CCCN(C)C)c(=O)c1=O	12.4 µM
CN(C)CCCN(C)c1c(N)c(=O)c1=O	42.3 µM

system: Trypanosoma cruzi; assay: Trypanocidal activity against Trypanosoma cruzi MHOM/Pe/2011/Arequipa DTU 5 trypomastigotes derived from infected Balb/c mouse after 72 hrs by resazurin dye based assay; format: functional, organism-based; details: MHOM/Pe/2011/Arequipa DTU 5, 72 h

Compound	IC50
CCCCCCCCCCCCCCCCOP(=O)([O-])OCC[N+](C)(C)C [MILTEFOSINE]	18.8 µM
CCCCNc1c(N(C)CCCN(C)C)c(=O)c1=O	10.4 µM
CN(C)CCCN(C)c1c(N)c(=O)c1=O	33.2 µM

system: not listed separately; assay: Selectivity index, ratio of IC50 for African green monkey Vero cells to IC50 for Trypanosoma cruzi TINF/CH/1956/Tulahuen DTU 6 epimastigotes; format: toxicity; details: read-out: Ratio IC50

Compound	selectivity ratio
CCCCCCCCCCCCCCCCOP(=O)([O-])OCC[N+](C)(C)C [MILTEFOSINE]	0.9
CCCCNc1c(N(C)CCCN(C)C)c(=O)c1=O	48.3
CN(C)CCCN(C)c1c(N)c(=O)c1=O	25.1

system: not listed separately; assay: Selectivity index, ratio of IC50 for African green monkey Vero cells to IC50 for Trypanosoma cruzi IRHOD/CO/2008/SN3 DTU 1 trypomastigotes derived from infected Balb/c mouse; format: toxicity; details: read-out: Ratio IC50

Compound	selectivity ratio
CCCCCCCCCCCCCCCCOP(=O)([O-])OCC[N+](C)(C)C [MILTEFOSINE]	0.6
CCCCNc1c(N(C)CCCN(C)C)c(=O)c1=O	58.6
CN(C)CCCN(C)c1c(N)c(=O)c1=O	35.4

system: not listed separately; assay: Selectivity index, ratio of IC50 for African green monkey Vero cells to IC50 for Trypanosoma cruzi TINF/CH/1956/Tulahuen DTU 6 trypomastigotes derived from infected Balb/c mouse; format: toxicity; details: read-out: Ratio IC50

Compound	selectivity ratio
CCCCCCCCCCCCCCCCOP(=O)([O-])OCC[N+](C)(C)C [MILTEFOSINE]	1.1
CCCCNc1c(N(C)CCCN(C)C)c(=O)c1=O	49.3
CN(C)CCCN(C)c1c(N)c(=O)c1=O	31.8

system: Trypanosoma cruzi; assay: Trypanocidal activity against Trypanosoma cruzi TINF/CH/1956/Tulahuen DTU 6 amastigotes infected in African green monkey Vero cells after 72 hrs by Giemsa-staining based microscopic assay; format: functional, organism-based; details: TINF/CH/1956/Tulahuen DTU 6, Vero

Compound	IC50
CCCCCCCCCCCCCCCCOP(=O)([O-])OCC[N+](C)(C)C [MILTEFOSINE]	31.8 µM
CCCCNc1c(N(C)CCCN(C)C)c(=O)c1=O	11.7 µM
CN(C)CCCN(C)c1c(N)c(=O)c1=O	51.3 µM

system: Trypanosoma cruzi; assay: Trypanocidal activity against Trypanosoma cruzi IRHOD/CO/2008/SN3 DTU 1 epimastigotes after 72 hrs by resazurin dye based assay; format: functional, organism-based; details: IRHOD/CO/2008/SN3 DTU 1, 72 h

Compound	IC50
CCCCCCCCCCCCCCCCOP(=O)([O-])OCC[N+](C)(C)C [MILTEFOSINE]	55.9 µM
CCCCNc1c(N(C)CCCN(C)C)c(=O)c1=O	15.2 µM
CN(C)CCCN(C)c1c(N)c(=O)c1=O	33.7 µM

system: Trypanosoma cruzi; assay: Trypanocidal activity against Trypanosoma cruzi TINF/CH/1956/Tulahuen DTU 6 trypomastigotes derived from infected Balb/c mouse after 72 hrs by resazurin dye based assay; format: functional, organism-based; details: TINF/CH/1956/Tulahuen DTU 6, 72 h

Compound	IC50
CCCCCCCCCCCCCCCCOP(=O)([O-])OCC[N+](C)(C)C [MILTEFOSINE]	20.1 µM
CCCCNc1c(N(C)CCCN(C)C)c(=O)c1=O	8.9 µM
CN(C)CCCN(C)c1c(N)c(=O)c1=O	33.6 µM

system: Trypanosoma cruzi; assay: Trypanocidal activity against Trypanosoma cruzi MHOM/Pe/2011/Arequipa DTU 5 amastigotes infected in African green monkey Vero cells after 72 hrs by Giemsa-staining based microscopic assay; format: functional, organism-based; details: MHOM/Pe/2011/Arequipa DTU 5, Vero

Compound	IC50
CCCCCCCCCCCCCCCCOP(=O)([O-])OCC[N+](C)(C)C [MILTEFOSINE]	29.6 µM
CCCCNc1c(N(C)CCCN(C)C)c(=O)c1=O	14.7 µM
CN(C)CCCN(C)c1c(N)c(=O)c1=O	39.6 µM

system: not listed separately; assay: Selectivity index, ratio of IC50 for African green monkey Vero cells to IC50 for Trypanosoma cruzi TINF/CH/1956/Tulahuen DTU 6 amastigotes infected in African green monkey Vero cells; format: toxicity; details: read-out: Ratio IC50

Compound	selectivity ratio
CCCCCCCCCCCCCCCCOP(=O)([O-])OCC[N+](C)(C)C [MILTEFOSINE]	0.7
CCCCNc1c(N(C)CCCN(C)C)c(=O)c1=O	37.5
CN(C)CCCN(C)c1c(N)c(=O)c1=O	20.8

system: Trypanosoma cruzi; assay: Trypanocidal activity against Trypanosoma cruzi TINF/CH/1956/Tulahuen DTU 6 epimastigotes after 72 hrs by resazurin dye based assay; format: functional, organism-based; details: TINF/CH/1956/Tulahuen DTU 6, 72 h

Compound	IC50
CCCCCCCCCCCCCCCCOP(=O)([O-])OCC[N+](C)(C)C [MILTEFOSINE]	22.9 µM
CCCCNc1c(N(C)CCCN(C)C)c(=O)c1=O	9.1 µM
CN(C)CCCN(C)c1c(N)c(=O)c1=O	42.6 µM

system: not listed separately; assay: Selectivity index, ratio of IC50 for African green monkey Vero cells to IC50 for Trypanosoma cruzi MHOM/Pe/2011/Arequipa DTU 5 amastigotes infected in African green monkey Vero cells; format: toxicity; details: read-out: Ratio IC50

Compound	selectivity ratio
CCCCCCCCCCCCCCCCOP(=O)([O-])OCC[N+](C)(C)C [MILTEFOSINE]	0.7
CCCCNc1c(N(C)CCCN(C)C)c(=O)c1=O	29.9
CN(C)CCCN(C)c1c(N)c(=O)c1=O	27

system: not listed separately; assay: Selectivity index, ratio of IC50 for African green monkey Vero cells to IC50 for Trypanosoma cruzi IRHOD/CO/2008/SN3 DTU 1 epimastigotes; format: toxicity; details: read-out: Ratio IC50

Compound	selectivity ratio
CCCCCCCCCCCCCCCCOP(=O)([O-])OCC[N+](C)(C)C [MILTEFOSINE]	0.4
CCCCNc1c(N(C)CCCN(C)C)c(=O)c1=O	28.9
CN(C)CCCN(C)c1c(N)c(=O)c1=O	31.8

system: not listed separately; assay: Selectivity index, ratio of IC50 for African green monkey Vero cells to IC50 for Trypanosoma cruzi MHOM/Pe/2011/Arequipa DTU 5 epimastigotes; format: toxicity; details: read-out: Ratio IC50

Compound	selectivity ratio
CCCCCCCCCCCCCCCCOP(=O)([O-])OCC[N+](C)(C)C [MILTEFOSINE]	1
CCCCNc1c(N(C)CCCN(C)C)c(=O)c1=O	35.4
CN(C)CCCN(C)c1c(N)c(=O)c1=O	25.3

system: Trypanosoma cruzi; assay: Trypanocidal activity against Trypanosoma cruzi IRHOD/CO/2008/SN3 DTU 1 trypomastigotes derived from infected Balb/c mouse after 72 hrs by resazurin dye based assay; format: functional, organism-based; details: IRHOD/CO/2008/SN3 DTU 1, 72 h

Compound	IC50
CCCCCCCCCCCCCCCCOP(=O)([O-])OCC[N+](C)(C)C [MILTEFOSINE]	34.8 µM
CCCCNc1c(N(C)CCCN(C)C)c(=O)c1=O	7.5 µM
CN(C)CCCN(C)c1c(N)c(=O)c1=O	30.2 µM

system: Vero; assay: Cytotoxicity against African green monkey Vero cells assessed as reduction in cell viability after 72 hrs by resazurin dye based assay; details: Chlorocebus sabaeus

Compound	IC50
CCCCCCCCCCCCCCCCOP(=O)([O-])OCC[N+](C)(C)C [MILTEFOSINE]	21.6 µM
CCCCNc1c(N(C)CCCN(C)C)c(=O)c1=O	439 µM
CN(C)CCCN(C)c1c(N)c(=O)c1=O	1070 µM

system: not listed separately; assay: Selectivity index, ratio of IC50 for African green monkey Vero cells to IC50 for Trypanosoma cruzi IRHOD/CO/2008/SN3 DTU 1 amastigotes infected in African green monkey Vero cells; format: toxicity; details: read-out: Ratio IC50

Compound	selectivity ratio
CCCCCCCCCCCCCCCCOP(=O)([O-])OCC[N+](C)(C)C [MILTEFOSINE]	0.5
CCCCNc1c(N(C)CCCN(C)C)c(=O)c1=O	33.5
CN(C)CCCN(C)c1c(N)c(=O)c1=O	17.1
